Assay results reported in patent US9051240B2, “Substituted 2-[2-(phenyl) ethylamino] alkaneamide derivatives and their use as sodium and/or calcium channel modulators” (Newron Pharmaceuticals S.P.A., priority 2007, dated 2015).

Tested on: mice
Test: Amphetamine and chlordiazepoxide-induced hyperlocomotion in mice
Type: in vivo
Settings: 20.0 mg/Kg po
Experimental: In this model, mice are treated with a mixture of d-amphetamine plus an anxiolytic dose of the benzodiazepine, chlordiazepoxide (Rushton R, Steinberg H. Combined effects of chlordiazepoxide and d-amphetamine on activity of rats in an unfamiliar environment. Nature 1966; 211:1312-3; R. Arban, G. Maraia, K. Brackenborough, L. Winyard, A. Wilson, P. Gerrard, C. Large. Evaluation of the effects of lamotrigine, valproate and carbamazepine in a rodent model of mania Behavioural Brain Research, 158: 123-132). The model has been claimed to mimic some aspects of mania in bipolar disorder. Importantly, the hyperactivity induced by the mixture of d-amphetamine and chlordiazepoxide could be prevented by prior administration of the established mood stabilizer, lithium, as well as other mood stabilizers drugs (e.g. magnesium valproate and carbamazepine). […]
Amphetamine (AMP) (2.5 mg/kg) plus chlordiazepoxide hydrochloride (CDZ) (3 mg/kg/ip) were administered to male Albino Swiss mice (25-32 g) in a volume of 10 ml/kg. The locomotor activity was recorded using Opto-M3 System (Columbus Instruments) which is multi-channel activity monitor. […] The locomotor activity (ambulation and total activity count) was evaluated for 30 min. […]
Statistical analysis: the data were evaluated by an analysis of variance (ANOVA), followed, when appropriate, by individual comparison with the control using Dunnett's test.

## CCCCOc1cccc(CCNCC(=O)N(C)C)c1.Cl [2-[2-(3-Butoxyphenyl)-ethylamino]-N,N-dimethylacetamide hydrochloride]
Amphetamine 2.5 mg/kg i.p.
  hyperactivity (ambulation over 30 min) induced by amphetamine alone: reduced hyperactivity
Amphetamine 2.5 mg/kg i.p. + chlordiazepoxide 3.0 mg/Kg ip
  hyperactivity (ambulation over 30 min) induced by the mixture of amphetamine and chlordiazepoxide: reduced hyperactivity
